# Structures can show the parent of a compound that is named as a salt.
# Tested on: Ls-174t human colon cancer
# Experiment: Antitumor therapeutic efficacy test in vivo
# Parameters: species or system BALB/cA-nude mice
# Protocol: [Antitumor Therapeutic Efficacy Test In Vivo]
# Preparation methods: The drug was diluted with saline solution to required concentration.
# Experimental animals: BALB/cA-nude mice, 6-7 weeks, ♀, purchased from Shanghai Slac Laboratory Animal Co., LTD. […] Environment: SPF level.
# After tumors grew to the 150-300 mm^3, mice were randomly divided into teams (d0). The volume of tumors and the weight of the mice were measured and recorded for 2-3 times per week. The tumor volume (V) was calculated by the follow equation: V=½×a×b^2 wherein a, b represent length and width respectively.
compound,measurement,setting,value
"CCc1c2c(nc3ccc(OC(=O)N4CCC(N5CCCCC5)CC4)cc13)-c1cc3c(c(=O)n1C2)COC(=O)[C@]3(O)CC [CPT-11, Irinotecan hydrochloride]",growth of Ls-174t human colon cancer in nude mice,,inhibited the growth of Ls-174t human colon cancer in nude mice significantly
same,% T/C D12,"10 mg/kg, IV, D0, 3",45%
same,Tumor inhibition rate (%) D12,"10 mg/kg, IV, D0, 3",55%
same,Partial regression,"10 mg/kg, IV, D0, 3, number of animals",0

# Source: US10022365B2 (Jiangsu Hengrui Medicine Co., Ltd., priority 2009, dated 2018)
